From US6875768B1, “Phthalamide derivatives, intermediates in the production thereof, and agricultural/horticultural insecticides and method for using the same” (Nihon Nohyako Co., Ltd., priority 1999, dated 2005)

Key:
[1] = system: Common cutworm (Spodoptera litura); type: in vivo; settings: 500 ppm; cabbage leaf immersed about 30 seconds; second-instar larvae; eight days after the inoculation; 25° C.
Excerpt: Insecticidal Effect on Common cutworm (Spodoptera litura)

[2] = system: diamond back moth (Plutella xylostella); type: in vivo; settings: 1,000 ppm; Chinese cabbage seedling with eggs immersed about 30 seconds; counted six days after the immersion; 25° C.
Excerpt: Insecticidal effect on diamond back moth (Plutella xylostella)
Adult diamond back moths were released and allowed to oviposit on a Chinese cabbage seedling. […] Six days after the immersion, the hatched insects were counted. […] [formula] Criterion • A - - - Mortality 100% • B - - - Mortality 99-90% • C - - - Mortality 89-80% • D - - - Mortality 79-50%

[3] = system: rice leafroller (Cnaphalocrosis medinalis); settings: 500 ppm; rice lamina immersed about 30 seconds; third-instar larvae; four days after the inoculation; 25° C., humidity 70%
Procedure: Insecticidal effect on rice leafroller (Cnaphalocrosis medinalis)
After air-dryness, the lamina was placed in a plastic Petri dish with a diameter of 9 cm whose bottom had been covered with a wetted filter paper. The lamina was inoculated with third-instar larvae of rice leafroller, after which the dish was allowed to stand in a room thermostatted at 25° C. and having a humidity of 70%. Four days after the inoculation, the dead and alive were counted and the insecticidal effect was judged according to the criterion shown in Test Example 1. The test was carried out with triplicate groups of 10 insects.

Measured: insecticidal effect (activity ranking by mortality)

Cc1nc(C(F)(C(F)(F)F)C(F)(F)F)ccc1NC(=O)c1cccc(I)c1C(=O)NC(C)(C)C [Q27-143]
B or higher: all assays above

CSCC(C)NC(=O)c1c(I)cccc1C(=O)Nc1cnc(C(F)(C(F)(F)F)C(F)(F)F)cc1C (stereo not drawn) [Q27-144, N^1-(4-methyl-2-heptafluoroisopropyl-pyridin-5-yl)-N^2-(1-methyl-2-methylthioethyl),-3-iodophthalamide]
B or higher: all assays above

CSCC(C)NC(=O)c1c(I)cccc1C(=O)Nc1ccc(C(F)(C(F)(F)F)C(F)(F)F)nc1C (stereo not drawn) [Q27-145]
B or higher: all assays above

CC(C)NC(=O)c1c(C(=O)Nc2cccnc2)cccc1[N+](=O)[O-] [Q27-164]
B or higher: all assays above
